How the values were obtained:
Assay in all cases: KINOMEscan
Assay type in all cases: binding
[1] = biological target: T1, PAK3 (Homo sapiens, UniProt O75914); settings: PAK3, 1 uM
T1 construct: purchased Ambit KINOMEscan (DiscoverX)
Protocol: (§1) First, we used Ambit's KINOMEscan™ technology to identify those kinases that are inhibited for substrate binding by the compounds, all assayed at 1 μM. Second, we used Invitrogen's SelectScreen® Biochemical Kinase Profiling Service to determine the in vitro IC50s for the compounds against specific kinases.

[2] = biological target: T2, ABL1(Q252H)-nonphosphorylated (Homo sapiens, UniProt P00519, Q252H); settings: 1 uM
T2 construct: purchased Ambit KINOMEscan (DiscoverX)
Protocol: as §1

[3] = biological target: T3, PFTK1 (Homo sapiens, UniProt O94921); settings: PFTK1, 1 uM
T3 construct: purchased Ambit KINOMEscan (DiscoverX)
Protocol: as §1

[4] = biological target: T4, MERTK (Homo sapiens, UniProt Q12866); settings: 1 uM
T4 construct: purchased Ambit KINOMEscan (DiscoverX)
Protocol: as §1

[5] = biological target: T5, PIK3C2G (Homo sapiens, UniProt O75747); settings: 1 uM
T5 construct: purchased Ambit KINOMEscan (DiscoverX)
Protocol: as §1

[6] = biological target: T6, KIT(V559D,T670I) (Homo sapiens, UniProt P10721, T670I/V559D); settings: 1 uM
T6 construct: purchased Ambit KINOMEscan (DiscoverX)
Protocol: as §1

[7] = biological target: T7, BIKE (Homo sapiens, UniProt Q9NSY1); settings: 1 uM
T7 construct: purchased Ambit KINOMEscan (DiscoverX)
Protocol: as §1

[8] = biological target: T8, GRK7 (Homo sapiens, UniProt Q8WTQ7); settings: GRK7, 1 uM
T8 construct: purchased Ambit KINOMEscan (DiscoverX)
Protocol: as §1

[9] = biological target: T9, AKT3 (Homo sapiens, UniProt Q9Y243); settings: AKT3, 1 uM
T9 construct: purchased Ambit KINOMEscan (DiscoverX)
Protocol: as §1

[10] = biological target: T10, NEK1 (Homo sapiens, UniProt Q96PY6); settings: for % binding compared to no inhibitor control: NEK1, 1 uM
T10 construct: purchased Ambit KINOMEscan (DiscoverX)
T10 sequence (Q96PY6 1-1258): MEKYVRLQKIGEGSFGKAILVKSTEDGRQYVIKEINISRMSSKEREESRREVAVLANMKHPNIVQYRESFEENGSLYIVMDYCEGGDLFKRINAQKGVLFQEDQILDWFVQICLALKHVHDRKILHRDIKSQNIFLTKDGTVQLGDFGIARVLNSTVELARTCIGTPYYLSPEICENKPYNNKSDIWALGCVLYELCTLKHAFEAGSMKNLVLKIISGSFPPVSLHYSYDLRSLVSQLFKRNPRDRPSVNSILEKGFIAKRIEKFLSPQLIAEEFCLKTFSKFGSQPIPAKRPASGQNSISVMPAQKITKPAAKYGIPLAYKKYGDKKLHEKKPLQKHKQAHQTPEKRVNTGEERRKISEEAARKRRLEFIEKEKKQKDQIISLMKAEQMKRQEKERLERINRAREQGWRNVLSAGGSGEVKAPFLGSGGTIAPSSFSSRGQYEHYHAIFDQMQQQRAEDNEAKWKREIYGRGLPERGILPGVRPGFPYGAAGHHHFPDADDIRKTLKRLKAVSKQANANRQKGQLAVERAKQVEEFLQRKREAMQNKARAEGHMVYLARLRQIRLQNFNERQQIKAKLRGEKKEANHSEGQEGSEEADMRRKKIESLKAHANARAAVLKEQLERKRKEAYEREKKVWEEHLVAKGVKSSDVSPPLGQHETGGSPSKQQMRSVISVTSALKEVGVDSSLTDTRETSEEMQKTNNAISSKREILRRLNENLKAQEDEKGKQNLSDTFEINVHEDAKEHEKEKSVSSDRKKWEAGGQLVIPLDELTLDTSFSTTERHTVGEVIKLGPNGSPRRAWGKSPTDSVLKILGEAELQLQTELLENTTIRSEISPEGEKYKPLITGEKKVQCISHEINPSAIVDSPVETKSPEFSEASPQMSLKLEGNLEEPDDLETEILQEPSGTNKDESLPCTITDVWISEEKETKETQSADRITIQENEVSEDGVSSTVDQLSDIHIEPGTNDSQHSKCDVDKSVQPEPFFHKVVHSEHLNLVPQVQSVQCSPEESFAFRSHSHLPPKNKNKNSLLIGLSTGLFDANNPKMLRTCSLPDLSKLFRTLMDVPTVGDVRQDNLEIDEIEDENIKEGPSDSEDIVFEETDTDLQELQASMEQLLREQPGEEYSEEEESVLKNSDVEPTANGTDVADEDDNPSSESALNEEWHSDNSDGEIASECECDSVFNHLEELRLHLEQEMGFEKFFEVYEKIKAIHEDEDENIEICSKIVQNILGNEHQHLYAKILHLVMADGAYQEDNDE
Protocol: as §1

[11] = biological target: T11, EPHB4 (Homo sapiens, UniProt P54760); settings: EPHB4, 1 uM
T11 construct: purchased Ambit KINOMEscan (DiscoverX)
Protocol: as §1

[12] = biological target: T12, PAK7 (Homo sapiens, UniProt Q9P286); settings: PAK7, 1 uM
T12 construct: purchased Ambit KINOMEscan (DiscoverX)
Protocol: as §1

[13] = biological target: T13, EPHA3 (Homo sapiens, UniProt P29320); settings: EPHA3, 1 uM
T13 construct: purchased Ambit KINOMEscan (DiscoverX)
Protocol: as §1

[14] = biological target: T14, CAMK1 (Homo sapiens, UniProt Q14012); settings: CAMK1, 1 uM
T14 construct: purchased Ambit KINOMEscan (DiscoverX)
Protocol: as §1

[15] = biological target: T15, PAK4 (Homo sapiens, UniProt O96013); settings: PAK4, 1 uM
T15 construct: purchased Ambit KINOMEscan (DiscoverX)
Protocol: as §1

[16] = biological target: T16, CDK8 (Homo sapiens, UniProt P49336); settings: CDK8, 1 uM
T16 construct: purchased Ambit KINOMEscan (DiscoverX)
Protocol: as §1

[17] = biological target: T17, PHKG2 (Homo sapiens, UniProt P15735); settings: PHKG2, 1 uM
T17 construct: purchased Ambit KINOMEscan (DiscoverX)
Protocol: as §1

[18] = biological target: T18, CSNK1G3 (Homo sapiens, UniProt Q9Y6M4); settings: CSNK1G3, 1 uM
T18 construct: purchased Ambit KINOMEscan (DiscoverX)
Protocol: as §1

[19] = biological target: T19, MEK4 (Homo sapiens, UniProt P45985); settings: MEK4, 1 uM
T19 construct: purchased Ambit KINOMEscan (DiscoverX)
Protocol: as §1

[20] = biological target: T20, HCK (Homo sapiens, UniProt P08631); settings: 1 uM
T20 construct: purchased Ambit KINOMEscan (DiscoverX)
Protocol: as §1

[21] = biological target: T21, PDGFRA (Homo sapiens, UniProt P16234); settings: 1 uM
T21 construct: purchased Ambit KINOMEscan (DiscoverX)
Protocol: as §1

[22] = biological target: T22, IRAK1 (Homo sapiens, UniProt P51617); settings: IRAK1, 1 uM
T22 construct: purchased Ambit KINOMEscan (DiscoverX)
Protocol: as §1

[23] = biological target: T23, FRK (Homo sapiens, UniProt P42685); settings: 1 uM
T23 construct: purchased Ambit KINOMEscan (DiscoverX)
Protocol: as §1

[24] = biological target: T24, RIOK3 (Homo sapiens, UniProt O14730); settings: RIOK3, 1 uM
T24 construct: purchased Ambit KINOMEscan (DiscoverX)
Protocol: as §1

T3 sequence (O94921 whole entry): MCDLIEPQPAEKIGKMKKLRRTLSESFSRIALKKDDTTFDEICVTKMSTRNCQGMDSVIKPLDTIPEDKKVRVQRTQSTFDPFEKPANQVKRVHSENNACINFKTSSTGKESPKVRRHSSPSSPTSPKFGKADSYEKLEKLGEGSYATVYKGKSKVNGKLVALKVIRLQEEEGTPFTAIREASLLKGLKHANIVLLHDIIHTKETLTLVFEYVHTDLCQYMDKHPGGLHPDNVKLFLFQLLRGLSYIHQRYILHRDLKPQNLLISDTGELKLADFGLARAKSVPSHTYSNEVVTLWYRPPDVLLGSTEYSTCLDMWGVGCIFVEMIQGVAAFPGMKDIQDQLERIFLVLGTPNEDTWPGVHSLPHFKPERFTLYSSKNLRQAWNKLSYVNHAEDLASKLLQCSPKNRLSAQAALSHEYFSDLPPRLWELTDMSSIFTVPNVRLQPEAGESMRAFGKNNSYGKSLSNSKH
T4 sequence (Q12866 21-999): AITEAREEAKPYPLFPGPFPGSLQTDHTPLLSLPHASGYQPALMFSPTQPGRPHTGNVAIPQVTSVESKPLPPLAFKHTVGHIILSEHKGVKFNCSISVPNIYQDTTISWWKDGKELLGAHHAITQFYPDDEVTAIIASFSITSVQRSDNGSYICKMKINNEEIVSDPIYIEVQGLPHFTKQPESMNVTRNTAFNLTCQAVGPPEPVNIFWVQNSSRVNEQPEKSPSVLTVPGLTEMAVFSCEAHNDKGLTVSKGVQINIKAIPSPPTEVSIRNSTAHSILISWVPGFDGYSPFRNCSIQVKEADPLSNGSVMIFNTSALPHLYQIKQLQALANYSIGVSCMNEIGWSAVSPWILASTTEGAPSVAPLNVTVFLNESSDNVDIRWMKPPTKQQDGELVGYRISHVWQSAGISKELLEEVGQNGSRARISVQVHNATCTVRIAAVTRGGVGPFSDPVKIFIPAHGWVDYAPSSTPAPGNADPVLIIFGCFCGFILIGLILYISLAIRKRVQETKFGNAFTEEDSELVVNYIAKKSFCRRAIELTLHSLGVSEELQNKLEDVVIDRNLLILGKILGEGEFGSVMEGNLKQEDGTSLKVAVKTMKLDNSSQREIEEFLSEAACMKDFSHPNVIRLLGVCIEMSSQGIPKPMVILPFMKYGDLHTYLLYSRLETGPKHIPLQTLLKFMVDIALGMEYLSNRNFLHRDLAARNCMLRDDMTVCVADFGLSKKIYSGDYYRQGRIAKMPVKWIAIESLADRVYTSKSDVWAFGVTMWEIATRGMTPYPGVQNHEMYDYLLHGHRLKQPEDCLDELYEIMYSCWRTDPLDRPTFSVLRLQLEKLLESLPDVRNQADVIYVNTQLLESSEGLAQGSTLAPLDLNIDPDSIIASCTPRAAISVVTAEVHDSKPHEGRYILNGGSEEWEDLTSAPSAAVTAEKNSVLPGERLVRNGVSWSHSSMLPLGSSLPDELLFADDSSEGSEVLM
T22 sequence (P51617 whole entry): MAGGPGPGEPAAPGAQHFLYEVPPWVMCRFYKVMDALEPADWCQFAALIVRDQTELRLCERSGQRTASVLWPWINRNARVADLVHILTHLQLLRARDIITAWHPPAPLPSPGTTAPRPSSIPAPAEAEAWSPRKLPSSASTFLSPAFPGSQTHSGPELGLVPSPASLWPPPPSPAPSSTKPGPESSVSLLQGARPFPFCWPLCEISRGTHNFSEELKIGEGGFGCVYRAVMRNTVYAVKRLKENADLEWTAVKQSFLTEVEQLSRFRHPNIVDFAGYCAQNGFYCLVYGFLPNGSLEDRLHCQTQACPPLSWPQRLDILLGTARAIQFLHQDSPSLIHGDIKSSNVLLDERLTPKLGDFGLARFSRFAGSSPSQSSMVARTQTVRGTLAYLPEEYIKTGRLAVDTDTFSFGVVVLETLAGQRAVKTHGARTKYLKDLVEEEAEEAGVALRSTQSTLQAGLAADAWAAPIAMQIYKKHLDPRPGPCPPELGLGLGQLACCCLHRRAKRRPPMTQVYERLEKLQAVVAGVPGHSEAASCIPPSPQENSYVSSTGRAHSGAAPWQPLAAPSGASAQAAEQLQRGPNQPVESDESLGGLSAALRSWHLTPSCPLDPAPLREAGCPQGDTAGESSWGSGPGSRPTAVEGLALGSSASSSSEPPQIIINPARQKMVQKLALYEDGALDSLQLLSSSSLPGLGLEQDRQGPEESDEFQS
T20 sequence (P08631 whole entry): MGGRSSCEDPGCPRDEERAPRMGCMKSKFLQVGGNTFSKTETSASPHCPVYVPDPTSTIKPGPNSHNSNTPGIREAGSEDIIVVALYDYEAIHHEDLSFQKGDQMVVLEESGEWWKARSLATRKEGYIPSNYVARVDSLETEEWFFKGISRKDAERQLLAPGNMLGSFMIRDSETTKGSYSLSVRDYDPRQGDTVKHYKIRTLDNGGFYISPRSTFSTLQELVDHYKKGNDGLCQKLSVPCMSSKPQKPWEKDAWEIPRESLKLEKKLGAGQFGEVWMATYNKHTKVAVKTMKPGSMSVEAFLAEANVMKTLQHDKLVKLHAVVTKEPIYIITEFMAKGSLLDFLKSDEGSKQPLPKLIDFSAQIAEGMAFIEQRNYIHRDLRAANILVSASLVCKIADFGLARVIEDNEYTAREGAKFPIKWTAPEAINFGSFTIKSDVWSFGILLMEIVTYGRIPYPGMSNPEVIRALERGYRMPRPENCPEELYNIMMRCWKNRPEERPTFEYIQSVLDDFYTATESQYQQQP
T19 sequence (P45985 whole entry): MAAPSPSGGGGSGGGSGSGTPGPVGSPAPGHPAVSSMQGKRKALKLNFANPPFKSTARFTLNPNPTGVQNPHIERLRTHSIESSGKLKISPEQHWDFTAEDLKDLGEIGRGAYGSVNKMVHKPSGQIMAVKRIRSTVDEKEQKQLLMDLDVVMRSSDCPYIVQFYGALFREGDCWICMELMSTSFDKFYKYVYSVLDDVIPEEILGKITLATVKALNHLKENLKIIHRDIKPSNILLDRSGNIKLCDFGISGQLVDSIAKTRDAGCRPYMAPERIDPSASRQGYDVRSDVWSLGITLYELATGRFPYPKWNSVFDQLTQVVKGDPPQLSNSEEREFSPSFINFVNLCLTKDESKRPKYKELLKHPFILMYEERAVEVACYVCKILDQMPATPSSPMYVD
T24 sequence (O14730 whole entry): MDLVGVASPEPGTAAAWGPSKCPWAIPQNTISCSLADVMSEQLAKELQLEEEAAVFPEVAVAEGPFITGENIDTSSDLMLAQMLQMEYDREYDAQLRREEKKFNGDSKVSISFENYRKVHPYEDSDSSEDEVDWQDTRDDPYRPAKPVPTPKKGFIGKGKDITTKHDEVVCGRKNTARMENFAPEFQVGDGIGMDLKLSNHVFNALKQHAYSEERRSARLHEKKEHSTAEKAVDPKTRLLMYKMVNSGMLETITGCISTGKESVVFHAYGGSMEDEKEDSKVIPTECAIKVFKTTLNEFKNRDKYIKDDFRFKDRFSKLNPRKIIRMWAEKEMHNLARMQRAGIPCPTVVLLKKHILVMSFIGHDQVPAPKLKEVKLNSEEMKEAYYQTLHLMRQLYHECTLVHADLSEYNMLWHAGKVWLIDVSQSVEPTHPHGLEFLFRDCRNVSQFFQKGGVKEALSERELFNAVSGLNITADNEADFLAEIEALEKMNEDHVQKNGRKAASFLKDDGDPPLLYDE
T21 sequence (P16234 24-1089): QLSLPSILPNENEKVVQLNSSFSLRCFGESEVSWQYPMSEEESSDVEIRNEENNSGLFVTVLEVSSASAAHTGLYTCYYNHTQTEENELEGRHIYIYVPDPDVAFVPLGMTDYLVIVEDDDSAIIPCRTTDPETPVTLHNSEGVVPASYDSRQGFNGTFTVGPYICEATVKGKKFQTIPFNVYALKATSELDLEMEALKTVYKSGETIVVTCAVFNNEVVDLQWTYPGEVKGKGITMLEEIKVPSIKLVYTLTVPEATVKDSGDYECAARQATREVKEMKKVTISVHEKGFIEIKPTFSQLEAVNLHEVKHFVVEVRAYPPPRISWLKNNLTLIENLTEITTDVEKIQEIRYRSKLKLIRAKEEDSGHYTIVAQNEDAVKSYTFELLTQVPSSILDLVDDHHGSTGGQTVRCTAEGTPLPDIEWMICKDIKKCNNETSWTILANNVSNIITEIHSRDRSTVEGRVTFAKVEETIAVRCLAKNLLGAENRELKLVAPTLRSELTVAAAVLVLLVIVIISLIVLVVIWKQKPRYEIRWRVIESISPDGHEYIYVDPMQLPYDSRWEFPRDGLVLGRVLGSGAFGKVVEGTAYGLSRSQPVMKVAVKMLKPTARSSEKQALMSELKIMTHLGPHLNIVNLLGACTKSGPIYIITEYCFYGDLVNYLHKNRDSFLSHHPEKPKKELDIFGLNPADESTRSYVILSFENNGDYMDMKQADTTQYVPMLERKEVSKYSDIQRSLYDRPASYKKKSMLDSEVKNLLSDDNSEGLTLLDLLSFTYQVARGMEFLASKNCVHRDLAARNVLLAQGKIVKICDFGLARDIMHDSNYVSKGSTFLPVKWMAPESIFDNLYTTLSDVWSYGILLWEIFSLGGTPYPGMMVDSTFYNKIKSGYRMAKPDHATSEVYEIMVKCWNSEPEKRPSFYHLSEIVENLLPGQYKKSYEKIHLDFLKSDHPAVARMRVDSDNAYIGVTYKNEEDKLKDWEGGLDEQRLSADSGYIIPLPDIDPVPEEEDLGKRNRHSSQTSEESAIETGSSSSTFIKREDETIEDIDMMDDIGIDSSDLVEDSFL
T14 sequence (Q14012 whole entry): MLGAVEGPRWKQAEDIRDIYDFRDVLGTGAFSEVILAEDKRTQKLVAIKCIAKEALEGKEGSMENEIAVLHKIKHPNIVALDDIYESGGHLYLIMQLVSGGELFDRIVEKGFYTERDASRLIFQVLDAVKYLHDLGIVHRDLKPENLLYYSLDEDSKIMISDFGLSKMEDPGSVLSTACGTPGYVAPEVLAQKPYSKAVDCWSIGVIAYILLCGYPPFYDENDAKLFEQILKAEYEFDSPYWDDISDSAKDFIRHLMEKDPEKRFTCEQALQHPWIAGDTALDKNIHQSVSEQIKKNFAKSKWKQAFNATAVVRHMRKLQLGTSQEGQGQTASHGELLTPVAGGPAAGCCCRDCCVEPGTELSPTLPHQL

Row | Compound | % binding compared to no inhibitor control [1] | % binding compared to no inhibitor control [2] | % binding compared to no inhibitor control [3] | % binding compared to no inhibitor control [4] | % binding compared to no inhibitor control [5] | % binding compared to no inhibitor control [6] | % binding compared to no inhibitor control [7] | % binding compared to no inhibitor control [8] | % binding compared to no inhibitor control [9] | % binding compared to no inhibitor control [10] | % binding compared to no inhibitor control [11] | % binding compared to no inhibitor control [12] | % binding compared to no inhibitor control [13] | % binding compared to no inhibitor control [14] | % binding compared to no inhibitor control [15] | % binding compared to no inhibitor control [16] | % binding compared to no inhibitor control [17] | % binding compared to no inhibitor control [18] | % binding compared to no inhibitor control [19] | % binding compared to no inhibitor control [20] | other results
1 | COc1ccccc1Nc1nc(-c2ccc(OC)c(OC)c2)cc2nccn12 [BAY derivative 6] | 100% | 58% | 100% | 100% | 100% | 87% | 53% | 100% | 100% | 91% | 97% | 98% | 100% | 100% | 90% | 100% | 100% | 100% | 100% | 83% | % binding compared to no inhibitor control [21]: 100%; % binding compared to no inhibitor control [22]: 92%; % binding compared to no inhibitor control [23]: 84%; % binding compared to no inhibitor control [24]: 80%
2 | COc1ccc(-c2cc3nccn3c(Nc3ncccc3C(N)=O)n2)cc1OC.Cl.Cl [BAY61-3606, 2-[7-(3,4-dimethoxyphenyl)-imidazo [1,2-c]pyrimidin-5-ylamino] nicotinamide dihydrochloride, reference compound] | 92% | 85% | 100% | 78% | 23% | 9.3% | 22% | 59% | 90% | 27% | 86% | 72% | 83% | 62% | 85% | 62% | 26% | 81% | 45% | 88% | % inhibition ATP binding ([10]; NEK1, KINOMEscan, 1 μM): 73%; % binding compared to no inhibitor control [21]: 67%; % binding compared to no inhibitor control [22]: 8%; % binding compared to no inhibitor control [23]: 100%; % binding compared to no inhibitor control [24]: 98%
